According to US4407794A, “Peptides and therapeutic applications thereof” (Centre National de la Recherche Scientifique (CNRS), priority 1980, dated 1983):
Peptide text beside a SMILES is read from it.

Assays:
rats [1] = assay: Anti-diarrhea action, castor oil test; assay type: in vivo; details: 10 rats, one hour prior to castor oil
Protocol: This action was investigated by the castor oil test in rats, using the method according to Niemegeers and co-workers (Arzn.-Forsch. 22, 516-518, 1972).
The tests were conducted with male rats of 160-220 g body weight. After an 18 hr fasting period, each animal was orally administered 1 ml castor oil.
The test compounds, dissolved in water, were administered orally under a volume of 0.5 ml per 100 g body weight, one hour prior to the castor oil administration.

liberation of dopamine = assay: Spontaneous liberation of dopamine, ICV injection tests; assay type: in vivo
μ receptors = μ receptors (Cavia porcellus, UniProt P97266); assay: Inhibition of the contraction of the isolated guinea-pig ileum induced by coaxial stimulation; assay type: cell-based, guinea-pigs; details: for ILEUM Relative action: % activity with respect to Met-Enkephalin=100; for IC50: isolated guinea-pig ileum, coaxial stimulation, number of experiments in parentheses, read-out: ILEUM IC 50
Protocol: (§1) The study of the action on μ receptors or on σ receptors was conducted as a function of the effect on the isolated ileum of guinea-pigs or on the vas deferens of mice.
The action on the μ receptors was determined by the measure of the 50% inhibiting concentration (IC 50) of the contraction of the isolated ileum of guinea-pigs, induced by coaxial stimulation (PATON W.D.M., Brit.J. Pharm. 1959, 12, 119).
The 50% inhibiting concentrations are expressed as nanomolar/liter concentrations. Each product is tested with respect to Met-Enkephalin as reference material and the results obtained are also expressed as % activity with respect to Met-Enkephalin=100.
(§2) The ratio [formula] makes it possible to find out whether the test material is […] σ- specific. In said Table, the number of experiments is indicated between parentheses.

mice = assay: Analgesic activity, hot-plate (65° C.) test, i.v.; assay type: in vivo; details: for Reaction time (s) 15' Licking: 15 minutes; for Reaction time (s) 30' Leap: 30 minutes; for Reaction time (s) 60' Adjusted jump: 60 minutes; for Reaction time (s) 90' Adjusted jump: 90 minutes
Protocol: The compounds were tested in vivo by the intravenous route (i.v.) in mice, using the hot-plate (65° C.) test in mice, according to the method disclosed by JACOB & BLOZOVSKI (Arch.Int.Pharmacodyn. 1961, 33,296) by determination of the licking reflex at 15 minutes, of the leap at 30 minutes and of the adjusted jump at 60 and 90 minutes.
DAla2 Met-Enkephalin was used as reference material.

σ receptors = assay type: cell-based, mice; details: for VAS DEFERENS Relative action: % activity with respect to Met-Enkephalin=100; for R IC 50 ileum / IC 50 V.D.: ratio of ileum (μ) IC50 to vas deferens IC50
Protocol: as §1
(§3) The action on the σ receptors was determined by the measure of the 50% inhibiting concentration (IC 50) of the contraction of the vas deferens of mice, induced by electric stimulation.
(§4) The 50% inhibiting concentrations are expressed as nanomolar/liter concentrations.
as §2

[2] = assay type: cell-based, mice; details: mouse vas deferens, electric stimulation; number of experiments in parentheses; read-out: VAS DEFERENS IC 50
Protocol: as §1, §3, §4, §2

rats [3] = assay: Locomotor activity after i.v. administration; assay type: in vivo; details: 5 mg/kg i.v., male rats, group of 10; saline reference group 100 ± 15%
Protocol: This preferential effect of δ-specific compound I on the dopaminergic receptors may be evidenced by i.v. administration of compound I and determination of the locomotor activity according to STINUS et al. Proc.Natl. Acad.Sci.USA 77, 2302 (1980). Each experiment was conducted on a group of 10 animals (male rats weighing 200-250 g) and the results obtained were compared with those of a reference group.

rats [4] = assay: Naxolone susceptibility test, appearance of dependence (abstinence jumps); assay type: in vivo; details: 25 mg/kg 4 times a day for 10 days, Naxolone 10 mg/kg s.c. on the 10th day
Protocol: This test makes it possible to evaluate the dependence induced by chronic administration of morphinic analgesics. It comprises inducing the dependence condition after 10 days of treatment by injection of a high doage of an antagonist: naxolone. Compound 1 was tested by ICV administration in rats, using the technique according to Frederickson et al., Res. Common.Pathol.Pharmacol. 5, 867(1973).
The results obtained are set forth in Table IV below and are compared with those obtained with morphine.

Chain of μ receptors (P97266 whole entry, looked up): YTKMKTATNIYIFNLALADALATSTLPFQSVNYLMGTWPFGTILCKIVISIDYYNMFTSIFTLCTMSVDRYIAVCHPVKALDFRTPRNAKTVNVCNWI

Compound: COc1ccc2c3c1O[C@H]1[C@@H](O)C=C[C@H]4[C@@H](C2)N(C)CC[C@@]341 [Codein base]
- Number of non-diarrheic animals 2 hours (rats [1]; 3 mg/kg orally): 7
- Number of non-diarrheic animals 4 hours (rats [1]; 3 mg/kg orally): 4
- Number of non-diarrheic animals 2 hours (rats [1]; 10 mg/kg orally): 10
- Number of non-diarrheic animals 4 hours (rats [1]; 10 mg/kg orally): 7

Compound: CC(C)C[C@H](NC(=O)[C@H](Cc1ccccc1)NC(=O)CNC(=O)[C@@H](CO)NC(=O)[C@@H](N)Cc1ccc(O)cc1)C(=O)N[C@H](C(=O)O)[C@@H](C)O [Example 1, TyrD.SerGlyPheLeuThr]
- Increase of spontaneous liberation of dopamine (liberation of dopamine; 5×10^-8 M): 100%
- ILEUM Relative action (μ receptors): 55%
- IC50 (μ receptors): 637 nM
- Reaction time (s) 15' Licking (mice; 35 mg/kg i.v.): 29.4 ± 3.2 s
- Reaction time (s) 30' Leap (mice; 35 mg/kg i.v.): 30.1 ± 5.7 s
- Reaction time (s) 60' Adjusted jump (mice; 35 mg/kg i.v.): 28.6 ± 7.2 s
- Reaction time (s) 90' Adjusted jump (mice; 35 mg/kg i.v.): 32.2 ± 9.2 s
- VAS DEFERENS Relative action (σ receptors): 2250%
- R IC 50 ileum / IC 50 V.D. (σ receptors): 796
- IC50 [2]: 0.8 nM
- Locomotor activity (rats [3]): 65 ± 10%
- Abstinence test (jumps) (rats [4]): 10 ± 2 jumps

Compound: CC(C)C[C@H](NC(=O)[C@H](Cc1ccccc1)NC(=O)CNC(=O)[C@@H](C)NC(=O)[C@@H](N)Cc1ccc(O)cc1)C(=O)N[C@H](C(=O)O)[C@@H](C)O [Example 2, TyrD.AlaGlyPheLeuThr] (HELM PEPTIDE1{Y.[dA].G.F.L.T}$$$$V2.0)
- IC50 (μ receptors): 500 nM

Compound: CSCC[C@H](NC(=O)[C@H](Cc1ccccc1)NC(=O)CNC(=O)[C@@H](C)NC(=O)[C@@H](N)Cc1ccc(O)cc1)C(=O)NCCCCCNS(=O)(=O)c1cccc2c(N(C)C)cccc12 [Example 13 of patent FR 78 12 543]
- ILEUM Relative action (μ receptors): 110%
- VAS DEFERENS Relative action (σ receptors): 2.7%
- R IC 50 ileum / IC 50 V.D. (σ receptors): 0.49
- IC50 [2]: 650 nM

Compound: CCCC[C@H](NC(=O)[C@H](Cc1ccccc1)NC(=O)CNC(=O)[C@@H](CO)NC(=O)[C@@H](N)Cc1ccc(O)cc1)C(=O)N[C@H](C(=O)O)[C@@H](C)O [Example 25, TyrD.SerGlyPheN.LeuThr]
- IC50 (μ receptors): 1050 nM

Compound: CC(C)C[C@@H](NC(=O)[C@H](Cc1ccccc1)NC(=O)CNC(=O)[C@@H](CO)NC(=O)[C@@H](N)Cc1ccc(O)cc1)C(=O)O [Example 45, TyrD.SerGlyPheD.Leu] (HELM PEPTIDE1{Y.[dS].G.F.[dL]}$$$$V2.0)
- IC50 (μ receptors): 247 nM

Compound: CSCC[C@H](NC(=O)[C@H](Cc1ccccc1)NC(=O)CNC(=O)CNC(=O)[C@@H](N)Cc1ccc(O)cc1)C(=O)O [Met-Enkephalin]
- ILEUM Relative action (μ receptors): 100%
- IC50 (μ receptors): 354 nM
- VAS DEFERENS Relative action (σ receptors): 100%

Compound: CN1CC[C@]23c4c5ccc(O)c4O[C@H]2[C@@H](O)C=C[C@H]3[C@H]1C5.Cl [Morphin (hydrochloride)]
- Number of non-diarrheic animals 2 hours (rats [1]; 1 mg/kg orally): 9
- Number of non-diarrheic animals 4 hours (rats [1]; 1 mg/kg orally): 4
- Number of non-diarrheic animals 2 hours (rats [1]; 3 mg/kg orally): 10
- Number of non-diarrheic animals 4 hours (rats [1]; 3 mg/kg orally): 6

Compound: CN1CC[C@]23c4c5ccc(O)c4O[C@H]2[C@@H](O)C=C[C@H]3[C@H]1C5 [Morphin, morphine]
- Increase of spontaneous liberation of dopamine (liberation of dopamine; 10^-6 M): 50%
- Abstinence test (jumps) (rats [4]): 74 ± 11 jumps

Compound: D.Ala2 Met-Enkephalin
- Reaction time (s) 15' Licking (mice; 100 mg/kg i.v.): 5.5 ± 1 s
- Reaction time (s) 30' Leap (mice; 100 mg/kg i.v.): 5.5 ± 1.6 s
- Reaction time (s) 60' Adjusted jump (mice; 100 mg/kg i.v.): 5.5 ± 1.2 s
- Reaction time (s) 90' Adjusted jump (mice; 100 mg/kg i.v.): 5.6 ± 2 s

Compound: DAla^2 Met.Enkamide
- Increase of spontaneous liberation of dopamine (liberation of dopamine; 10^-6 M): 100%
